Data as given in patent US20230092890A1, “1, 3, 4-Oxadiazole derivative compounds as histone deacetylase 6 inhibitor, and the pharmaceutical composition comprising the same” (Chong Kun Dang Pharmaceutical Corp., priority 2019, published 2023).

Experiments:
[1] = target: T1, HDAC1 (Homo sapiens, UniProt Q13547); test: HDAC enzyme activity inhibition (in vitro), HDAC1 Fluorimetric Drug Discovery Assay Kit; type: biochemical; settings: samples at 100, 1000 and 10000 nM; 37° C. 60 minutes; fluorescence Ex 390, Em 460; read-out: HDAC1 IC50
T1 construct: purchased Enzolifesciences BML-AK511
T1 sequence (Q13547 whole entry): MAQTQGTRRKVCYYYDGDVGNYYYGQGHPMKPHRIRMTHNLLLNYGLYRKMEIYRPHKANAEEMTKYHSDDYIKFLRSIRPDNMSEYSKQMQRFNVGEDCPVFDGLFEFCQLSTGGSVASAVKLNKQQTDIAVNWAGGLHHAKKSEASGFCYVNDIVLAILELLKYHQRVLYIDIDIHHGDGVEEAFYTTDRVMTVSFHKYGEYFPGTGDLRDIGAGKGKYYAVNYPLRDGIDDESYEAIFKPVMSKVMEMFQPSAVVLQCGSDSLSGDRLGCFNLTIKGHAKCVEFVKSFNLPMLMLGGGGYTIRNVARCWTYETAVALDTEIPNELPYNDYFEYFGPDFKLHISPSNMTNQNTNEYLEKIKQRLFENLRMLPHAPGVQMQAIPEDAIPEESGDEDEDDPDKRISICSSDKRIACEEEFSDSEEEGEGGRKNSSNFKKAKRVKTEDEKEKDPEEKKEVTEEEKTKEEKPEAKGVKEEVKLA
Summary of the method: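 Each sample reacted with enzyme for 60 min at 37° C before a 30-min developer step at the same temperature. HDAC1 doses spanned 100 to 10000 nM. Fluorescent signal was read at Ex 390/Em 460.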

[2] = target: T2, HDAC6 human recombinant (Homo sapiens, UniProt Q9UBN7); test: HDAC enzyme activity inhibition (in vitro), HDAC6 assay; type: biochemical; settings: samples at 0.1, 1, 10, 100 and 1000 nM; 37° C. 60 minutes; fluorescence Ex 390, Em 460; read-out: HDAC6 IC50
T2 construct: purchased Calbiochem 382180
T2 sequence (Q9UBN7 1-1215): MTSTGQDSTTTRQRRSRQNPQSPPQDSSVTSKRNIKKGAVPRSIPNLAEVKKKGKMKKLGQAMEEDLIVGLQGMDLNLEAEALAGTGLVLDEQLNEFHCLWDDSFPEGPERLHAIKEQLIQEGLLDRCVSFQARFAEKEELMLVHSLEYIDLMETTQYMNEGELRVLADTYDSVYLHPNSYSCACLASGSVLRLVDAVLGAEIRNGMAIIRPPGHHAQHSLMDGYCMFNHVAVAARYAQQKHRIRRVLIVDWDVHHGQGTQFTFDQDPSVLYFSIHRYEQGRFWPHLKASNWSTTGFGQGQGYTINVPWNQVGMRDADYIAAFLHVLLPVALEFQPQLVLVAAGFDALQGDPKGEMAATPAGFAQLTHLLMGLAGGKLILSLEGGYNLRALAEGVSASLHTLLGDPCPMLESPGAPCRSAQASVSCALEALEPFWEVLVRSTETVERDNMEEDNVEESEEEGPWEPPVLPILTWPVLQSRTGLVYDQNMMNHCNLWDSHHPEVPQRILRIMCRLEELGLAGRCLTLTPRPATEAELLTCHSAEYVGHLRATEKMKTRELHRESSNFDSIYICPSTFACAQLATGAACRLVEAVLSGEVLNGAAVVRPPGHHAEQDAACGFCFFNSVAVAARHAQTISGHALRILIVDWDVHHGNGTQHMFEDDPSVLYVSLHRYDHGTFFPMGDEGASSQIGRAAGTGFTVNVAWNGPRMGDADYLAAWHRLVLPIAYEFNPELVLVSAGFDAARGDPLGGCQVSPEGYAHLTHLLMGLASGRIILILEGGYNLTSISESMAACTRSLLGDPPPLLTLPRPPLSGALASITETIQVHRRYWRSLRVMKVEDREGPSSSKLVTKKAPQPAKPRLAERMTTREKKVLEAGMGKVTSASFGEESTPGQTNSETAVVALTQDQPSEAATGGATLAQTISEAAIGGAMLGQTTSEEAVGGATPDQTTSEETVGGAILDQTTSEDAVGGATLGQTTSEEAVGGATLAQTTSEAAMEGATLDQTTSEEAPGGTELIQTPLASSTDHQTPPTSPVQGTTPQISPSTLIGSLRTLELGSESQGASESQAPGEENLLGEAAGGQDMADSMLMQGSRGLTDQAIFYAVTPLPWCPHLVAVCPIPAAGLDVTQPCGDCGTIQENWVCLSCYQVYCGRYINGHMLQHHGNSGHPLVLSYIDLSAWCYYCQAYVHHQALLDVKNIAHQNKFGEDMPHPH
Summary of the method: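 Fluorescence (Ex 390, Em 460) read after a 37° C, 60 min enzyme reaction and a further 30 min developer step at 37° C. Uses recombinant human HDAC6; HDAC1 arm dosed at 100, 1000, 10000 nM.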

SMILES	IC50 [1]	IC50 [2]
O=c1sc2cc(-c3cnn(C4CCN(CC(F)(F)F)CC4)c3)ccc2n1Cc1ccc(-c2nnc(C(F)F)o2)cn1 [Compound 356, 3-((5-(5-(difluoromethyl)-1,3,4-oxadiazole-2-yl)pyridine-2-yl)methyl)-6-(1-(1-(2,2,2-trifluoroethyl)piperidine-4-yl)-1H-pyrazole-4-yl)benzo[d]thiazole-2(3H)-one]	> 10000 nM	84 nM
O=c1sc2cc(-c3cnn(C4CCN(CC5(F)CC5)CC4)c3)ccc2n1Cc1ccc(-c2nnc(C(F)F)o2)cn1 [Compound 357, 3-((5-(5-(difluoromethyl)-1,3,4-oxadiazole-2-yl)pyridine-2-yl)methyl)-6-(1-(1-((1-fluorocyclopropyl)methyl)piperidine-4-yl)-1H-pyrazole-4-yl)benzo[d]thiazole-2(3H)-one]	> 10000 nM	42 nM
CC(C)(C)OC(=O)N1CCC(n2cc(-c3cc4oc(=O)n(Cc5ccc(-c6nnc(C(F)F)o6)cn5)c4cc3F)cn2)CC1 [Compound 358, tert-butyl 4-(4-(3-((5-(5-(difluoromethyl)-1,3,4-oxadiazole-2-yl)pyridine-2-yl)methyl)-5-fluoro-2-oxo-2,3-dihydrobenzo[d]oxazole-6-yl)-1H-pyrazole-1-yl)piperidine-1-carboxylate]	> 10000 nM	130 nM
O=c1oc2cc(-c3cnn(C4CCNCC4)c3)c(F)cc2n1Cc1ccc(-c2nnc(C(F)F)o2)cn1 [Compound 359, 3-((5-(5-(difluoromethyl)-1,3,4-oxadiazole-2-yl)pyridine-2-yl)methyl)-5-fluoro-6-(1-(piperidine-4-yl)-1H-pyrazole-4-yl)benzo[d]oxazole-2(3H)-one]	> 10000 nM	33 nM
CN1CCC(n2cc(-c3cc4oc(=O)n(Cc5ccc(-c6nnc(C(F)F)o6)cn5)c4cc3F)cn2)CC1 [Compound 360, 3-((5-(5-(difluoromethyl)-1,3,4-oxadiazole-2-yl)pyridine-2-yl)methyl)-5-fluoro-6-(1-(1-methylpiperidine-4-yl)-1H-pyrazole-4-yl)benzo[d]oxazole-2(3H)-one]	> 10000 nM	27 nM
CC(C)N1CCC(n2cc(-c3cc4oc(=O)n(Cc5ccc(-c6nnc(C(F)F)o6)cn5)c4cc3F)cn2)CC1 [Compound 361, 3-((5-(5-(difluoromethyl)-1,3,4-oxadiazole-2-yl)pyridine-2-yl)methyl)-5-fluoro-6-(1-(1-isopropylpiperidine-4-yl)-1H-pyrazole-4-yl)benzo[d]oxazole-2(3H)-one]	> 10000 nM	23 nM
O=c1oc2cc(-c3cnn(C4CCN(C5COC5)CC4)c3)c(F)cc2n1Cc1ccc(-c2nnc(C(F)F)o2)cn1 [Compound 362, 3-((5-(5-(difluoromethyl)-1,3,4-oxadiazole-2-yl)pyridine-2-yl)methyl)-5-fluoro-6-(1-(1-(oxetan-3-yl)piperidine-4-yl)-1H-pyrazole-4-yl)benzo[d]oxazole-2(3H)-one]	> 10000 nM	31 nM

The remaining lines, values ahead:

IC50 [1]	IC50 [2]	SMILES
> 10000 nM	22 nM	O=c1oc2cc(-c3ccc(N4CCNCC4)nc3)c(F)cc2n1Cc1ccc(-c2nnc(C(F)F)o2)cn1 [Compound 345, 3-((5-(5-(difluoromethyl)-1,3,4-oxadiazole-2-yl)pyridine-2-yl)methyl)-5-fluoro-6-(6-(piperazine-1-yl)pyridine-3-yl)benzo[d]oxazole-2(3H)-one]
> 10000 nM	47 nM	CN1CCN(c2ccc(-c3cc4oc(=O)n(Cc5ccc(-c6nnc(C(F)F)o6)cn5)c4cc3F)cn2)CC1 [Compound 346, 3-((5-(5-(difluoromethyl)-1,3,4-oxadiazole-2-yl)pyridine-2-yl)methyl)-5-fluoro-6-(6-(4-methylpiperazine-1-yl)pyridine-3-yl)benzo[d]oxazole-2(3H)-one]
> 10000 nM	62 nM	CCN1CCN(c2ccc(-c3cc4oc(=O)n(Cc5ccc(-c6nnc(C(F)F)o6)cn5)c4cc3F)cn2)CC1 [Compound 347, 3-((5-(5-(difluoromethyl)-1,3,4-oxadiazole-2-yl)pyridine-2-yl)methyl)-6-(6-(4-ethylpiperazine-1-yl)pyridine-3-yl)-5-fluorobenzo[d]oxazole-2(3H)-one]
> 10000 nM	25 nM	O=c1oc2cc(-c3cncc(N4CCOCC4)c3)c(F)cc2n1Cc1ccc(-c2nnc(C(F)F)o2)cn1 [Compound 348, 3-((5-(5-(difluoromethyl)-1,3,4-oxadiazole-2-yl)pyridine-2-yl)methyl)-5-fluoro-6-(5-morpholinopyridine-3-yl)benzo[d]oxazole-2(3H)-one]
> 10000 nM	55 nM	CC(C)N1CCN(c2ccc(-c3cc4oc(=O)n(Cc5ccc(-c6nnc(C(F)F)o6)cn5)c4cc3F)cn2)CC1 [Compound 349, 3-((5-(5-(difluoromethyl)-1,3,4-oxadiazole-2-yl)pyridine-2-yl)methyl)-5-fluoro-6-(6-(4-isopropylpiperazine-1-yl)pyridine-3-yl)benzo[d]oxazole-2(3H)-one]
> 10000 nM	33 nM	O=c1oc2cc(-c3ccc(N4CCN(C5COC5)CC4)nc3)c(F)cc2n1Cc1ccc(-c2nnc(C(F)F)o2)cn1 [Compound 350, 3-((5-(5-(difluoromethyl)-1,3,4-oxadiazole-2-yl)pyridine-2-yl)methyl)-5-fluoro-6-(6-(4-(oxetan-3-yl)piperazine-1-yl)pyridine-3-yl)benzo[d]oxazole-2(3H)-one]
> 10000 nM	151 nM	O=c1oc2cc(-c3ccc(N4CCN(CC(F)(F)F)CC4)nc3)c(F)cc2n1Cc1ccc(-c2nnc(C(F)F)o2)cn1 [Compound 351, 3-((5-(5-(difluoromethyl)-1,3,4-oxadiazole-2-yl)pyridine-2-yl)methyl)-5-fluoro-6-(6-(4-(2,2,2-trifluoroethyl)piperazine-1-yl)pyridine-3-yl)benzo[d]oxazole-2(3H)-one]
> 10000 nM	170 nM	CC(C)(C)OC(=O)N1CCC(n2cc(-c3ccc4c(c3)sc(=O)n4Cc3ccc(-c4nnc(C(F)F)o4)cn3)cn2)CC1 [Compound 352, tert-butyl 4-(4-(3-((5-(5-(difluoromethyl)-1,3,4-oxadiazole-2-yl)pyridine-2-yl)methyl)-2-oxo-2,3-dihydrobenzo[d]thiazole-6-yl)-1H-pyrazole-1-yl)piperidine-1-carboxylate]
> 10000 nM	19 nM	CN1CCC(n2cc(-c3ccc4c(c3)sc(=O)n4Cc3ccc(-c4nnc(C(F)F)o4)cn3)cn2)CC1 [Compound 353, 3-((5-(5-(difluoromethyl)-1,3,4-oxadiazole-2-yl)pyridine-2-yl)methyl)-6-(1-(1-methylpiperidine-4-yl)-1H-pyrazole-4-yl)benzo[d]thiazole-2(3H)-one]
> 10000 nM	16 nM	CC(C)N1CCC(n2cc(-c3ccc4c(c3)sc(=O)n4Cc3ccc(-c4nnc(C(F)F)o4)cn3)cn2)CC1 [Compound 354, 3-((5-(5-(difluoromethyl)-1,3,4-oxadiazole-2-yl)pyridine-2-yl)methyl)-6-(1-(1-isopropylpiperidine-4-yl)-1H-pyrazole-4-yl)benzo[d]thiazole-2(3H)-one]
> 10000 nM	23 nM	O=c1sc2cc(-c3cnn(C4CCN(C5COC5)CC4)c3)ccc2n1Cc1ccc(-c2nnc(C(F)F)o2)cn1 [Compound 355, 3-((5-(5-(difluoromethyl)-1,3,4-oxadiazole-2-yl)pyridine-2-yl)methyl)-6-(1-(1-(oxetan-3-yl)piperidine-4-yl)-1H-pyrazole-4-yl)benzo[d]thiazole-2(3H)-on]
